How the values were obtained:
Assay in all cases: relative viability (nuclei count vs DMSO), 5 days (fraction); higher = more cells survive
[1] = compound: CC1=CC(=CC=C1)NC2=NC(=CS2)C3=CC=NC=C3 + NC(=O)Nc1cc(-c2cccc(F)c2)sc1C(=O)N[C@H]1CCCNC1 [AZD7762] (partner 0.2 µM)
Method in brief: (§1)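 Nuclei were stained with Hoechst during a one-step fixation (final 0.05% Triton X-100, 1% formaldehyde, 1 ug/ml Hoechst) carried out 5 days after dosing, then counted on 4× images. The cells, lung cancer lines in 1536-well plates, had been dosed by pin tool the day after seeding with one drug alone or a fixed anchor-drug dose plus five library-drug doses (not always all listed) in √10 steps. Relative viability is the nuclei count in treated wells divided by that in vehicle wells, and each value is the median of duplicate plates.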

[2] = compound: CC1=CC(=CC=C1)NC2=NC(=CS2)C3=CC=NC=C3 + CS(=O)(=O)N1CCN(Cc2cc3nc(-c4cccc5[nH]ncc45)nc(N4CCOCC4)c3s2)CC1 [Pictilisib] (partner 1 µM)
Method in brief: as §1

Masitinib + Phenformin = compound: Cc1ccc(NC(=O)c2ccc(CN3CCN(C)CC3)cc2)cc1Nc1nc(-c2cccnc2)cs1 [Masitinib] + N=C(N)NC(=N)NCCc1ccccc1 [Phenformin] (partner 250 µM)
Method in brief: as §1

[3] = compound: CC1=CC(=CC=C1)NC2=NC(=CS2)C3=CC=NC=C3 + CC(=O)Nc1cccc(-n2c(=O)n(C3CC3)c(=O)c3c(Nc4ccc(I)cc4F)n(C)c(=O)c(C)c32)c1 [Trametinib] (partner 0.02 µM)
Method in brief: as §1

Cell Line	relative viability ([1]; first compound 0.08 µM)	relative viability ([1]; first compound 0.253 µM)	relative viability ([1]; first compound 0.8 µM)	relative viability ([1]; first compound 2.53 µM)	relative viability ([1]; first compound 8 µM)	relative viability ([2]; first compound 0.08 µM)	relative viability ([2]; first compound 0.253 µM)	relative viability ([2]; first compound 0.8 µM)	relative viability ([2]; first compound 2.53 µM)	relative viability ([2]; first compound 8 µM)	relative viability (Masitinib + Phenformin; first compound 0.01 µM)	relative viability (Masitinib + Phenformin; first compound 0.03162 µM)	relative viability (Masitinib + Phenformin; first compound 0.1 µM)	relative viability (Masitinib + Phenformin; first compound 0.3162 µM)	relative viability (Masitinib + Phenformin; first compound 1 µM)	relative viability ([3]; first compound 0.08 µM)	relative viability ([3]; first compound 0.253 µM)	relative viability ([3]; first compound 0.8 µM)	relative viability ([3]; first compound 2.53 µM)	relative viability ([3]; first compound 8 µM)
NCI-H1792	0.459	0.529	0.628	0.755	0.524	0.155	0.198	0.219	0.162	0.24	0.216	0.258	0.233	0.363	0.191	0.401	0.397	0.379	0.317	0.429
HCC-78	0.674	0.409	0.613	0.449	0.658	0.204	0.198	0.261	0.219	0.22	0.724	0.638	0.752	0.663	0.718	0.505	0.666	0.617	0.563	0.753
IA-LM	–	–	–	–	–	0.24	0.337	0.415	0.267	0.427	–	–	–	–	–	–	–	–	–	–
NCI-H441	1.1	1.01	1.1	1.35	0.997	0.44	0.529	0.476	0.489	0.543	0.654	1.05	0.837	0.94	0.843	0.363	0.418	0.623	0.348	0.349
COR-L23	–	–	–	–	–	0.539	0.57	0.451	0.714	0.661	0.415	0.434	0.507	0.428	0.417	0.44	0.598	0.59	0.568	0.567
COR-L 105	–	–	–	–	–	0.322	0.427	0.374	0.413	0.393	0.505	0.542	0.604	0.515	0.425	0.442	0.465	0.454	0.424	0.38
SK-LU-1	–	–	–	–	–	0.527	0.575	–	0.586	0.626	0.488	0.466	0.55	0.687	0.497	0.479	0.492	0.361	0.568	0.351
NCI-H1299	–	–	–	–	–	0.779	0.839	0.779	0.88	0.899	–	–	–	–	–	–	–	–	–	–
NCI-H661	–	–	–	–	–	0.447	0.47	0.407	0.397	0.489	0.267	0.286	0.254	0.26	0.267	0.478	0.583	0.579	0.54	0.48
NCI-H1703	0.121	0.127	0.14	0.148	0.112	0.229	0.243	0.238	0.282	0.262	–	–	–	–	–	–	–	–	–	–
NCI-H2228	–	–	–	–	–	0.413	0.431	0.281	0.453	0.359	0.347	0.302	0.335	0.398	0.215	0.418	0.48	0.501	0.44	0.385
NCI-H2009	–	–	–	–	–	0.724	0.837	0.692	0.856	0.957	0.434	0.48	0.463	0.427	0.381	0.249	0.271	0.265	0.267	0.278
SW 1573	–	–	–	–	–	0.473	0.454	0.521	0.57	0.488	0.351	0.344	0.341	0.354	0.383	0.596	0.585	0.741	0.696	0.48
NCI-H522	0.681	0.822	0.803	0.848	0.852	–	–	–	–	–	0.653	–	0.635	0.775	0.714	0.79	0.66	0.832	0.789	0.878
NCI-H2023	–	–	–	–	–	0.161	0.177	0.215	0.175	0.18	0.409	0.371	0.397	0.429	0.317	0.592	0.617	0.429	0.375	0.179
NCI-H1648	0.662	0.568	0.676	0.469	0.469	–	–	–	–	–	–	–	–	–	–	0.353	0.569	0.444	0.471	0.588
NCI-H1563	–	–	–	–	–	0.675	0.616	0.712	0.617	0.592	0.631	0.701	0.689	0.684	0.643	–	–	–	–	–
NCI-H2342	0.44	0.403	0.505	0.377	0.523	–	–	–	–	–	0.71	0.567	0.615	0.614	0.573	0.686	0.729	0.695	0.74	0.732
SW 900	0.65	0.576	0.745	0.508	0.26	–	–	–	–	–	0.652	0.609	0.706	0.448	0.436	0.518	0.539	0.913	0.508	0.667
A549	–	–	–	–	–	0.399	0.472	0.524	0.525	0.418	0.148	0.186	0.153	0.198	0.12	–	–	–	–	–
NCI-H520	–	–	–	–	–	0.281	0.346	0.301	0.278	0.299	0.633	0.648	0.664	0.584	0.457	0.592	0.671	0.757	0.707	0.716
NCI-H1650	–	–	–	–	–	0.536	0.517	0.621	0.419	0.208	0.419	0.334	0.447	0.371	0.362	0.52	0.319	0.555	0.429	0.333
ABC-1	0.675	0.613	0.688	0.628	0.881	0.48	0.665	0.686	0.634	0.486	0.204	0.24	0.228	0.209	0.234	–	–	–	–	–
